Results on 27 compounds are retold here after patent US11014917B2, “5-fluoro-c-(aryl or heterocyclyl)-glycoside derivatives useful as dual SGLT1 / SGLT2 modulators” (Janssen Pharmaceutica NV, priority 2017, dated 2021).

The target in one test is T1, human SGLT2 (Homo sapiens, UniProt P31639).
T1 construct: expressed in transfected cells
T1 sequence (P31639 1-672): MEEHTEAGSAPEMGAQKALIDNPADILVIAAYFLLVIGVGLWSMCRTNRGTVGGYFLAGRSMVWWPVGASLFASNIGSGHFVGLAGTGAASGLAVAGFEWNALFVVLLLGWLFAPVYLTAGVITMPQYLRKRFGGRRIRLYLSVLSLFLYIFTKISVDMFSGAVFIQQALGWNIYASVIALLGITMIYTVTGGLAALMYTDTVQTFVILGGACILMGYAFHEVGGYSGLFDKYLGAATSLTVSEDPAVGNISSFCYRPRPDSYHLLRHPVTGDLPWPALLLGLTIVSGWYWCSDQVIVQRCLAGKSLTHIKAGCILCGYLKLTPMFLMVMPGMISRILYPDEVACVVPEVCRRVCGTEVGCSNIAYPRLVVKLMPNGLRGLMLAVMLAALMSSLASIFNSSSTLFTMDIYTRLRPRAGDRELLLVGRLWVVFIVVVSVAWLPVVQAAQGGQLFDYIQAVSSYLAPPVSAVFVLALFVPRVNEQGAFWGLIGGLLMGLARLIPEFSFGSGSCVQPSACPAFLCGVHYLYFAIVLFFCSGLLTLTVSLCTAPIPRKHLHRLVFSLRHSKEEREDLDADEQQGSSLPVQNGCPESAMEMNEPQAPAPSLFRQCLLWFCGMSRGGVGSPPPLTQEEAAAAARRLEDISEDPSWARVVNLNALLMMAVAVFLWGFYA
Description: SGLT2 assay: Na-dependent 14C-AMG uptake in CHO-K1 cells stably expressing human SGLT2. The settings on record: for inhibition at 0.3 µM / SGLT2 %-inhibition: @ 0.3 μM; for IC50: average if tested more than once. It is filed as cell-based. An outline of the steps:
(§1)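 Stable CHO-K1 lines were pretreated 24 h with 10 mM Na-butyrate, then compound (0.001–10 μM) for 10 min in Na+ buffer (137 mM NaCl, pH 7.4). Uptake of 14C-AMG (500 μM final, 0.07 μCi/well) over 2 h at 37° C measured by scintillation; %-inhibition or IC50.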

For the next test, the target named is T2, human SGLT1 (Homo sapiens, UniProt P13866).
T2 construct: expressed in transfected cells
T2 sequence (P13866 1-664): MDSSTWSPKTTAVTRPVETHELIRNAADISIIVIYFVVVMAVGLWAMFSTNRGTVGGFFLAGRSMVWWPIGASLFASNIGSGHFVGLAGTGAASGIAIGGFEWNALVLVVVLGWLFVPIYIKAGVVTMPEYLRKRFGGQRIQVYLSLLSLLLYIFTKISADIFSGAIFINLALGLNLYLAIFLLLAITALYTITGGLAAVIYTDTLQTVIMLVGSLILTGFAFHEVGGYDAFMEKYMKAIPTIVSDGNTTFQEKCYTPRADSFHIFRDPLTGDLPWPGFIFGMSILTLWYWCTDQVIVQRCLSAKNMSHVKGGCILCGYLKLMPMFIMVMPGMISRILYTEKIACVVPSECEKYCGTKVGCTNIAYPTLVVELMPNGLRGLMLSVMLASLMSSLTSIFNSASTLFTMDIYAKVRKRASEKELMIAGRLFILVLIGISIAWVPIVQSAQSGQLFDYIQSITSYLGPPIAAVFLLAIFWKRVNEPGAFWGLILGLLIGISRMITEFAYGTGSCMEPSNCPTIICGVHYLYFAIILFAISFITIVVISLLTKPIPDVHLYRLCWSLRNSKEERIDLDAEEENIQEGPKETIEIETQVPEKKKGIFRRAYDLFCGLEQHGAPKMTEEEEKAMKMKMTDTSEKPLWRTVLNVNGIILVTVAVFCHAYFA
Description: SGLT1 assay: Na-dependent 14C-AMG uptake in CHO-K1 cells stably expressing human SGLT1. The format is cell-based. The settings on record: for inhibition at 0.3 µM / SGLT1 %-inhibition: @ 0.3 μM; for IC50: average if tested more than once. The essentials:
as §1

Structures are written as SMILES.

What is called inhibition is the drop in the measured response relative to a control, in per cent. A high value points to strong suppression. Consider `Cc1ccc([C@@H]2O[C@H](CO)[C@@H](F)[C@H](O)[C@H]2O)cc1Cc1cc2c(s1)CCN(C(=O)c1nccs1)C2` [Compound 109, (2-(5-((2S,3R,4R,5S,6R)-5-fluoro-3,4-dihydroxy-6-(hydroxymethyl)-tetrahydro-2H-pyran-2-yl)-2-methylbenzyl)-6,7-dihydrothieno[3,2-c]pyridin-5(4H)-yl)(thiazol-2-yl)methanone], for which the figures for the inhibition at 0.3 µM against human SGLT2 and on human SGLT1 were 72.7% and 39.5%, respectively.

For the compound `COc1c(Cc2cc3ccccc3s2)cc([C@@H]2O[C@H](CO)[C@@H](F)[C@H](O)[C@H]2O)c(O)c1C` [Compound 14], on human SGLT2, the SGLT2 %-inhibition came out at 36.0% @ 0.3 μM. Further, the SGLT1 %-inhibition on human SGLT1 is recorded as 69.3% @ 0.3 μM.

As to `[2H]C([2H])(c1ccc2c(c1)OC([2H])([2H])C([2H])([2H])O2)c1cc([C@@H]2O[C@H](CO)[C@@H](F)[C@H](O)[C@H]2O)ccc1CC` [Compound 176], the SGLT2 %-inhibition on human SGLT2 worked out at 56.1% @ 0.3 μM. Further, the SGLT1 %-inhibition on human SGLT1 turned out to be 68.9% @ 0.3 μM.

The compound `CC(=O)N1CCc2sc(Cc3cc([C@@H]4O[C@H](CO)[C@@H](F)[C@H](O)[C@H]4O)c(O)cc3Cl)cc2C1` [Compound 74] registered an SGLT2 %-inhibition on human SGLT2 of 65.2% @ 0.3 μM. In addition, the SGLT1 %-inhibition on human SGLT1 amounted to 65.5% @ 0.3 μM.

As a reminder, the IC50 is the midpoint of a concentration-inhibition curve. The low end stands for greater potency, the high end for weaker potency. `COc1c([C@@H]2O[C@H](CO)[C@@H](F)[C@H](O)[C@H]2O)cc(Cc2ccc3c(c2)N(C)CCC3)c2c1CCO2` [Compound 108, (2S,3R,4R,5S,6R)-5-fluoro-6-(hydroxymethyl)-2-(4-methoxy-7-((1-methyl-1,2,3,4-tetrahydroquinolin-7-yl)methyl)-2,3-dihydrobenzofuran-5-yl)-tetrahydro-2H-pyran-3,4-diol]: the IC50 against human SGLT2 came out at 0.075 µM; against human SGLT1 it was 0.326 µM.

Regarding `COc1c([C@@H]2O[C@H](CO)[C@@H](F)[C@H](O)[C@H]2O)cc(Cc2ccc3c(c2)SCCO3)c2c1CCO2` [Compound 107, (2S,3R,4R,5S,6R)-2-(7-((2,3-dihydrobenzo[b][1,4]oxathiin-6-yl)methyl)-4-methoxy-2,3-dihydrobenzofuran-5-yl)-5-fluoro-6-(hydroxymethyl)-tetrahydro-2H-pyran-3,4-diol], the IC50 on human SGLT2 was determined as 0.008 µM; against human SGLT1, 0.163 µM.

`COC(=O)N1CCc2sc(Cc3cc([C@@H]4O[C@H](CO)[C@@H](F)[C@H](O)[C@H]4O)c(OC)cc3Cl)cc2C1` [Compound 76]: the SGLT2 %-inhibition on human SGLT2 is 72.2% @ 0.3 μM. At human SGLT1, this compound came in with an SGLT1 %-inhibition of 28.6% @ 0.3 μM.

For the compound `COc1cc(O)c([C@@H]2O[C@H](CO)[C@@H](F)[C@H](O)[C@H]2O)cc1Cc1cc2c(s1)CCN(C(C)=O)C2` [Compound 79], the results for the 50% inhibitory concentration (IC50) against human SGLT2 and at human SGLT1 were 0.137 µM and 0.126 µM, respectively.

Consider `[2H]C([2H])([2H])Oc1cc(CC)c(Cc2ccc3c(c2)OCCO3)cc1[C@@H]1O[C@H](CO)[C@@H](F)[C@H](O)[C@H]1O` [Compound 182], for which the IC50 was 0.011 µM against human SGLT2 and 0.138 µM against human SGLT1.

For the compound `CCc1ccc(Cc2cc([C@@H]3O[C@H](CO)[C@@H](F)[C@H](O)[C@H]3O)cc3c2OCC3)cc1` [Compound 134], the figures for the half-maximal inhibitory concentration (IC50) at human SGLT2 and at human SGLT1 were 0.012 µM and 0.254 µM, respectively.

In the case of `COc1cc(OC)c(C2OC(C(C)O)C(F)C(O)C2O)cc1Cc1cc2ccccc2s1` (single isomer, unassigned) [Compound 72], the IC50 against human SGLT2 amounted to 0.024 µM; on human SGLT1 it was 0.127 µM.

With `OCC1COc2c(Cc3ccc4c(c3)OCCO4)cc([C@@H]3O[C@H](CO)[C@@H](F)[C@H](O)[C@H]3O)cc21` (stereo partly drawn) [Compound 75, (2S,3R,4R,5S,6R)-2-(7-((2,3-dihydrobenzo[b][1,4]dioxin-6-yl)methyl)-3-(hydroxymethyl)-2,3-dihydrobenzofuran-5-yl)-5-fluoro-6-(hydroxymethyl)-tetrahydro-2H-pyran-3,4-diol], the inhibition at 0.3 µM came out at 43.7% on human SGLT2 and 61.9% against human SGLT1.

For `Cc1cc(N2CCc3sc(Cc4cc([C@@H]5O[C@H](CO)[C@@H](F)[C@H](O)[C@H]5O)ccc4C)cc3C2)c(C)s1` [Compound 138], the SGLT2 %-inhibition on human SGLT2 turned out to be 46.7% @ 0.3 μM. Besides, the SGLT1 %-inhibition on human SGLT1 turned out to be 37.5% @ 0.3 μM.

Turning to `COC[C@H]1O[C@@H](c2cc(Cc3cc4ccccc4s3)c(OC)cc2O)[C@H](O)[C@@H](O)[C@@H]1F` [Compound 9, (2S,3R,4R,5S,6R)-2-[5-(1-benzothiophen-2-ylmethyl)-2-hydroxy-4-methoxyphenyl]-5-fluoro-6-(methoxymethyl)oxane-3,4-diol], the results for the concentration for half-maximal inhibition (IC50) at human SGLT2 and at human SGLT1 were 0.107 µM and 0.126 µM, respectively.

Consider `OC[C@H]1O[C@@H](c2cc3c(c(Cc4ccc(OCF)cc4)c2)OCC3)[C@H](O)[C@@H](O)[C@@H]1F` [Compound 133], for which the half-inhibitory concentration (IC50) against human SGLT2 amounted to 0.006 µM; against human SGLT1, 0.236 µM.

Turning to `Cc1cc(O)c([C@@H]2O[C@H](CO)[C@@H](F)[C@H](O)[C@H]2O)cc1Cc1cc2c(s1)CCN(C(=O)C1CCCC1)C2` [Compound 86, Cyclopentyl(2-(5-((2S,3R,4R,5S,6R)-5-fluoro-3,4-dihydroxy-6-(hydroxymethyl)-tetrahydro-2H-pyran-2-yl)-4-hydroxy-2-methylbenzyl)-6,7-dihydrothieno[3,2-c]pyridin-5(4H)-yl)methanone], the IC50 against human SGLT2 was determined as 0.038 µM; against human SGLT1, 0.29 µM.

Consider `[2H]C1([2H])Oc2ccc(Cc3cc([C@@H]4O[C@H](CO)[C@@H](F)[C@H](O)[C@H]4O)ccc3OC)cc2OC1([2H])[2H]` [Compound 173], for which the 50% inhibitory concentration (IC50) stood at 0.013 µM against human SGLT2 and 0.19 µM against human SGLT1.

As for `CCc1ccc([C@@H]2O[C@H](CO)[C@@H](F)[C@H](O)[C@H]2O)cc1Cc1ccc2c(c1)OC(F)(F)O2` [Compound 158], the SGLT2 %-inhibition at human SGLT2 stood at 18.0% @ 0.3 μM. At human SGLT1, this compound registered an SGLT1 %-inhibition of 2.6% @ 0.3 μM.

On to `OC[C@H]1O[C@@H](c2cc(Cc3cc4ccccc4s3)c3c(c2O)CCO3)[C@H](O)[C@@H](O)[C@@H]1F` [Compound 59], for which the IC50 against human SGLT2 is 0.009 µM; on human SGLT1, 0.031 µM.

As for `COc1cc(OCC#N)c([C@@H]2O[C@H](C(C)O)[C@@H](F)[C@H](O)[C@H]2O)cc1Cc1cc2ccccc2s1` (single isomer, unassigned) [Compound 71], the SGLT2 %-inhibition on human SGLT2 is on record as 30.0% @ 0.3 μM. On human SGLT1, this compound yielded an SGLT1 %-inhibition of 76.4% @ 0.3 μM.

For `Cc1cc(CO)c([C@@H]2O[C@H](CO)[C@@H](F)[C@H](O)[C@H]2O)cc1Cc1cc2ccccc2s1` [Compound 42], the concentration for half-maximal inhibition (IC50) on human SGLT2 amounted to 0.01 µM; at human SGLT1 it was 0.098 µM.

`Cc1ccc([C@@H]2O[C@H](CO)[C@@H](F)[C@H](O)[C@H]2O)cc1Cc1cc2c(s1)CCN(C(=O)N1CCCC1)C2` [Compound 78] registered an SGLT2 %-inhibition at human SGLT2 of 86.9% @ 0.3 μM. The compound also displayed an SGLT1 %-inhibition on human SGLT1 of 28.4% @ 0.3 μM.

For the compound `COc1cc(O)c([C@@H]2O[C@H](CO)[C@@H](F)[C@H](O)[C@H]2O)cc1Cc1cc2c(s1)CCN(C#N)C2` [Compound 100], the values for the IC50 against human SGLT2 and on human SGLT1 were 0.008 µM and 0.095 µM, respectively.

As to `CCc1ccc(Cc2cc([C@@H]3O[C@H](CO)[C@@H](F)[C@H](O)[C@H]3O)c(O)c3c2OCC3)cc1` [Compound 62], the 50% inhibitory concentration (IC50) was determined as 0.004 µM against human SGLT2 and 0.048 µM against human SGLT1.

With `[2H]C([2H])(c1ccc2c(c1)OCCO2)c1cc([C@@H]2O[C@H](CO)[C@@H](F)[C@H](O)[C@H]2O)ccc1Cl` [Compound 166], the concentration for half-maximal inhibition (IC50) against human SGLT2 was found to be 0.011 µM; on human SGLT1 it was 0.245 µM.

For the compound `[2H]C([2H])(c1ccc2c(c1)CCCO2)c1cc([C@@H]2O[C@H](CO)[C@@H](F)[C@H](O)[C@H]2O)ccc1OC` [Compound 171], the SGLT2 %-inhibition on human SGLT2 was found to be 69.9% @ 0.3 μM. Moreover, at human SGLT1, the SGLT1 %-inhibition is recorded as 27.1% @ 0.3 μM.

On human SGLT2, `Cc1cc(O)c([C@@H]2O[C@H](CO)[C@@H](F)[C@H](O)[C@H]2O)cc1Cc1cc2c(s1)CCN(C(=O)N1CCOCC1)C2` [Compound 67] displayed an SGLT2 %-inhibition of 57.5% @ 0.3 μM. The SGLT1 %-inhibition at human SGLT1 was 64.9% @ 0.3 μM.
